# “And” between values parts separate entries of the source, which are not always exact repeats. Equal values may be shown once. Read-outs that look alike come from different tables or passages of the source.
# Tests used:
# [1] = cited from earlier work
# [2] = cited from earlier work; remark: listed apart in the source
# [3] = In vivo dose (AUC) in human calculated from measured Hb adduct levels after AA exposure; conditions: human in vivo study used (dietary AA)
# Experimental: (§1) The in vivo dose or AUC of a compound in blood is the concentration integrated over time (Eq. 2).2 AUC=∫tC(t)dt A method to infer the AUC of an electrophilic compound or metabolite from measured Hb adduct levels (A) has been developed and established by our research group for quantitative monitoring of exposure in humans or for application in animal studies[1],[3]. When Hb adduct formation is measured a short time after a single acute exposure, or after incubation in vitro, AUC can be calculated using Eq. 3. This equation is based on A, and the second-order reaction rate constant (kNu) for the formation of an adduct to a nucleophilic site in Hb from the concerned electrophile.3 AUC=A/kNu
# (§2) For calculating the daily AUC from a longer duration of exposure, the daily adduct level increments (a) have to be calculated considering the accumulation and elimination of adducts due to lifetime of the erythrocytes (t er). […] From continuous or subchronic exposure when the exposure time (t) is shorter than t er, the accumulated adduct level is calculated [a × t × (1 − t/2t er)][49].
# In vivo dose or AUC of AA and of GA in human after intake of AA-rich food was obtained from Vikström et al.[23]. […] The measured adduct levels were used to calculate the daily adduct level increment, a, and adjusted for intake per kg bw (exposure dose 11 μg AA/kg bw). […]
# [4] = liver microsomes, rat (male, SD) vs. human (male); cited from earlier work
# [5] = In vivo dose (AUC) in rat calculated from measured Hb adduct levels after AA exposure; conditions: rat in vivo study used (AA in drinking water)
# Experimental: as §1, §2
# For in vivo data on AUC of AA and of GA from AA exposure in rats, a study on short-term oral exposure of rats was used[24]. […] Blood samples were collected and AA- and GA-adducts to N-terminal valine in Hb were measured as described above, and recalculated to the daily increment of the adduct level. […]
# [6] = male rat, different AA exposure studies, various methods; cited from earlier work
# [7] = set-up: method as in Doerge at al. (2005); conditions: male F344 rats, single dietary exposure ca. 100 µg AA/kg bw, n = 7, direct measurements; ref Doerge at al. (2005); cited from earlier work
# [8] = set-up: method as in PMID 25448046; conditions: human, for 1 ppm·h of BD exposure; cited from earlier work
# [9] = set-up: method as in PMID 25448046; conditions: occupationally BD-exposed humans; cited from earlier work
# [10] = Parallelogram approach prediction of AUC-DEB in rat from BD exposure; conditions: from the parallelogram approach
# Experimental: The inter-species extrapolation was performed using in vitro metabolic data on enzyme kinetics and published Hb adduct data[6]. This study was initiated as the AUC of DEB (AUC-DEB), in humans exposed to BD, had not been possible to measure with available methods.
# (§3) In our first application of the parallelogram approach, AUC-DEB was predicted in a case study on BD exposure. […] In the case of BD, the relatively large inter-species differences in metabolism were an advantage for testing of the approach.
# [11] = set-up: method as in PMID 25448046; conditions: rat, for 1 ppm·h of BD exposure; cited from earlier work
# [12] = AUC-DEB in rat calculated from measured Hb adduct levels after BD exposure; assay type: in vivo
# Description: as §3
# [13] = set-up: method as in PMID 25448046; conditions: mouse, for 1 ppm·h of BD exposure; cited from earlier work
# [14] = set-up: method as in PMID 25448046; conditions: mouse exposed to BD; cited from earlier work
# [15] = set-up: method as in PMID 25448046; conditions: rat exposed to BD; cited from earlier work
Structure (SMILES),"AUC-AA ([1]; Rat (male F344), 500 and 2000 μg AA/kg bw and day in drinking water, one week, n = 6, from Hb adducts)","AUC of AA ([1]; SD rat (male), subchronic intraperitoneal AA, Hb adducts on cysteine site) [nM·h per μg AA per kg bw]","AUC-AA ([1]; male F344 rats, single dose 0.1 mg AA/kg bw, Hb adducts, ref Tareke et al. (2006)) [nM·h/ μg AA per kg bw]","daily Hb adduct level increment per exposure dose ([2]; Human, AA-rich food 4 days, 11 μg AA/kg bw, adducts to N-terminal valine)","AUC-AA ([2]; Human, ca. 11 μg AA/kg bw and day through food, 4 days, n = 9, from Hb adducts)","AUC-AA ([2]; Humans, ca. 2.5 μg AA/kg bw daily through food, 28 days, n = 9, ref Vikström et al. (2011)) [nM·h/ μg AA per kg bw]","AUC-AA ([2]; Humans, single dose in drinking water 500, 1000 and 3000 µg AA/kg bw, n = 6 males, ref Fennell et al. (2005)) [nM·h/ μg AA per kg bw]",in vivo levels of AA (estimated) [3],"oxidation to GA, rat compared to human (times faster in rat) [4]",in vivo levels of AA (estimated) [5] [µM],range of AUC-AA [6],AUC-AA [7] [nM·h/ μg AA per kg bw],AUC-DEB predicted (parallelogram approach) [8] [nM·h],AUC-DEB calculated from measured Hb adducts levels [9] [nM·h/ppm·h BD],ratio for rat-to-human of AUC-DEB per AUC-EB [10],AUC-DEB predicted (parallelogram approach) [11] [nM·h],ratio for rat-to-human of AUC-DEB per AUC-EB [12],AUC-DEB predicted (parallelogram approach) [13] [nM·h],AUC-DEB calculated from measured Hb adducts levels [14] [nM·h/ppm·h BD],AUC-DEB calculated from measured Hb adducts levels [15] [nM·h/ppm·h BD]
"C=CC(N)=O [AA, Acrylamide]",34 ± 3 nM·h/μg AA per kg bw and 34 nM·h/μg AA per kg bw,28.2,23,1.4 pmol/g globin per μg AA/kg bw and day,212 ± 56 nM·h/μg AA per kg bw and 212 nM·h/μg AA per kg bw,120,246,about 100 nM,ca. 3 times,~25,18–80 nM·h per μg AA per kg bw,18,,,,,,,,
"C1OC1C1CO1 (centres unmarked) [DEB, 1,2:3,4-diepoxbutane]",,,,,,,,,,,,,0.078,0.023,2.2,1.26,4.3,41,38,1.37

# — paper PMC5730592, “Parallelogram based approach for in vivo dose estimation of genotoxic metabolites in humans with relevance to reduction of animal experiments” (Scientific Reports, 2017)
